Experimental data published in US20220071952A1, “METHODS OF TREATING AND PREVENTING HEPATOTOXICITY” (Natreon, Inc., priority 2020, published 2022).
Several values for one entry are separate records, joined by “and”; a condition that tells them apart may be missing. Identical values can stand only once.

Legend:
[1] = Body weight, food intake and water intake during alcohol-induced hepatotoxicity study (Example III); type: in vivo, Swiss Albino mice; settings: for change in body weight / change in food intake / change in water intake: 10 mg/kg p.o. + alcohol, 15 days; for body weight / food intake / water intake: 10 mg/kg p.o. + alcohol 5 g/kg p.o. twice daily, mean ± SD
Protocol: Swiss Albino male and female mice weighing approximately 30±5 g, 2 month old mice were obtained from National Research Institute of Ayurveda for Drug Development (Govt. of India), Kolkata, and were housed in polypropylene cages at 22±3° C., relative air humidity of 45 to 55%, with 12.00 hr light & dark cycle (lighting on from 6:00 AM to 6:00 PM). Mice were provided a standard pellet chow diet (carbohydrate 65.5%, protein 17.6%, fat 6.6%) and distilled water ad libitum. The mice were acclimatized for one week in the laboratory conditions, before being used in the experiment. All experiments were conducted between 10.00 hr and 14.00 hr. Principles of laboratory animals care (NIH publication no. 85-23, revised 1985) were followed.
Vehicle control animals (“Con Veh”) were administered 0.3% CMC orally for 15 days.
Animals receiving ethanol (“Alc+0.3 CMC”, “3-OH-DBP+Alc”, “3,8-(OH)2-DBP+Alc”) were administered ethanol in 0.3% CMC orally as discussed above.
Results were expressed in terms of mean±SD (n=8). The data were subjected to one way ANOVA followed by Tukey's test using GraphPad Prism 4.0 software to establish statistical significance (*p<0.05, **p<0.01, ***p<0.001 vs. vehicle control; # p<0.05, ## p<0.01, ### p<0.001 vs. animals administered ethanol only).

[2] = system: paracetamol-induced hepatotoxicity in mice; experiment: Synergistic hepatoprotective activity of DBPs against paracetamol-induced hepatotoxicity (Example IV); type: in vivo; settings: for ACP / ALP / ALT / AST / Total Protein: paracetamol 200 mg/kg, mean ± SEM, n=4
[3] = system: paracetamol-induced hepatotoxicity in mice; experiment: Paracetamol-induced hepatotoxicity in mice, serum biochemical parameters (Example I); type: in vivo, Swiss albino mice; settings: for ALP / ALT / AST / Total Bilirubin / Total Protein / Triglyceride: 10 mg/kg p.o. + paracetamol 200 mg/kg p.o., 7 days, serum, mean ± SD, n=6
Description: 3-OH-DBP (Natreon, Inc., New Brunswick, N.J., synthesized to 99% purity w/w) was in the form of a white free flowing powder. 3,8-(OH)2-DBP (Natreon, Inc., New Brunswick, N.J., synthesized to 99% purity w/w) was in the form of a pale green free flowing powder. Paracetamol (acetaminophen) was in the form of a white solid tablet.
Swiss albino mice of both sexes, weighing approximately 25-30 g, were obtained from National Research Institute of Ayurveda for Drug Development (Govt. of India), Kolkata, and were housed in polypropylene cages at 22±3° C., relative air humidity of 45 to 55%, with 12.00 hr light and dark cycle (lighting on from 6:00 AM to 6:00 PM). Mice were provided standard pellet chow (carbohydrate 65.5%, protein 17.6%, fat 6.6%) and distilled water ad libitum. The mice were acclimatized for one week in the above laboratory conditions, before being used in this experiment. All experiments were conducted between 10.00 hr and 14.00 hr. Principles of laboratory animal care (NIH publication no. 85-23, revised 1985) were followed.
The animals were randomly assigned into four groups of six animals each, as set out in Table 1. […] After 1 hr of last treatment, blood samples were collected and serum was separated.

[4] = female mice, doses 3-OH-DBP 2, 3,8-(OH)2-DBP 10, 1:5 combination 12 mg/kg b.w.
[5] = female mice, doses 3-OH-DBP 10, 3,8-(OH)2-DBP 50, 1:5 combination 60 mg/kg b.w.
[6] = male mice, doses 3-OH-DBP 2, 3,8-(OH)2-DBP 10, 1:5 combination 12 mg/kg b.w.
[7] = male mice, doses 3-OH-DBP 10, 3,8-(OH)2-DBP 50, 1:5 combination 60 mg/kg b.w.

O=c1oc2cc(O)ccc2c2ccc(O)cc12 [3,8-(OH)2-DBP, 3,8-dihydroxy-dibenzo-alpha-pyrone]
change in body weight ([1]; female mice): No significant change | change in food intake ([1]; female mice): No significant change | change in water intake ([1]; female mice): No significant change | body weight ([1]; female mice, Day 0): 25.17 ± 2.32 gm | food intake ([1]; female mice, Day 0): 8.52 ± 0.30 gm | water intake ([1]; female mice, Day 0): 4 ± 0.28 mL | body weight ([1]; female mice, Day 5): 23.5 ± 3.02 gm | food intake ([1]; female mice, Day 5): 8.78 ± 1.02 gm | water intake ([1]; female mice, Day 5): 4.01 ± 0.26 mL | body weight ([1]; female mice, Day 10): 23.67 ± 3.07 gm | food intake ([1]; female mice, Day 10): 16.44 ± 0.47 gm | water intake ([1]; female mice, Day 10): 2.32 ± 0.46 mL | body weight ([1]; female mice, Day 15): 22.83 ± 2.78 gm | food intake ([1]; female mice, Day 15): 16.12 ± 0.66 gm | water intake ([1]; female mice, Day 15): 2.15 ± 0.44 mL | change in body weight ([1]; male mice): No significant change | change in food intake ([1]; male mice): No significant change | change in water intake ([1]; male mice): No significant change | body weight ([1]; male mice, Day 0): 29.17 ± 2.79 gm | food intake ([1]; male mice, Day 0): 17.01 ± 0.75 gm | water intake ([1]; male mice, Day 0): 4.92 ± 0.45 mL | body weight ([1]; male mice, Day 5): 25 ± 3.29 gm | food intake ([1]; male mice, Day 5): 17.18 ± 0.85 gm | water intake ([1]; male mice, Day 5): 5.07 ± 0.61 mL | body weight ([1]; male mice, Day 10): 25.67 ± 2.66 gm | food intake ([1]; male mice, Day 10): 17.21 ± 1.11 gm | water intake ([1]; male mice, Day 10): 2.32 ± 0.31 mL | body weight ([1]; male mice, Day 15): 24.8 ± 2.93 gm | food intake ([1]; male mice, Day 15): 17.23 ± 1.16 gm | water intake ([1]; male mice, Day 15): 2.27 ± 0.33 mL | ACP, difference in values from paracetamol treated mice [2, 4]: B = (a-c = 4) U/L | ALP, difference in values from paracetamol treated mice [2, 4]: D = (a-c = 53) IU/L | ALT, difference in values from paracetamol treated mice [2, 4]: B = (a-c = 39) IU/L | AST, difference in values from paracetamol treated mice [2, 4]: B = (a-c = 64) IU/L | ACP, difference in values from paracetamol treated mice [2, 5]: E = (a-f = 5) U/L | ALP, difference in values from paracetamol treated mice [2, 5]: E = (a-f = 48) IU/L | ALT, difference in values from paracetamol treated mice [2, 5]: E = (a-f = 43) IU/L | AST, difference in values from paracetamol treated mice [2, 5]: E = (a-f = 77) IU/L | ACP [2, 4]: 12 ± 0.63^##(c) U/L | ALP [2, 4]: 45 ± 7.9^##(c) IU/L | ALT [2, 4]: 47 ± 12 (c) IU/L | AST [2, 4]: 79 ± 11*,^#(c) IU/L | Total Protein [2, 4]: 6.7 ± 0.02 g/dL | ACP [2, 5]: 11 ± 0.41^#(f) U/L | ALP [2, 5]: 50 ± 11^#(f)^ IU/L | ALT [2, 5]: 43 ± 2.5^##(f) IU/L | AST [2, 5]: 66 ± 11*,^#(f) IU/L | Total Protein [2, 5]: 5.8 ± 0.30 g/dL | Relative liver weight ([2]; male and female mice, paracetamol study of Example IV): significantly (p<0.01) increased | ACP, difference in values from paracetamol treated mice [2, 6]: B = (a-c = 6.13) U/L | ALP, difference in values from paracetamol treated mice [2, 6]: B = (a-c = 50.87) IU/L | ALT, difference in values from paracetamol treated mice [2, 6]: B = (a-c = 18.35) IU/L | AST, difference in values from paracetamol treated mice [2, 6]: B = (a-c = 33.82) IU/L | ACP, difference in values from paracetamol treated mice [2, 7]: E = (a-f = 10.56) U/L | ALP, difference in values from paracetamol treated mice [2, 7]: E = (a-f = 48.85) IU/L | ALT, difference in values from paracetamol treated mice [2, 7]: E = (a-f = 20.56) IU/L | AST, difference in values from paracetamol treated mice [2, 7]: E = (a-f = 46.36) IU/L | ACP [2, 6]: 12.06 ± 0.43 (c) U/L | ALP [2, 6]: 77.63 ± 6.81 (c) IU/L | ALT [2, 6]: 49.28 ± 7.23 (c) IU/L | AST [2, 6]: 68.23 ± 4.96^###(c) IU/L | Total Protein [2, 6]: 6.97 ± 0.12 g/dL | ACP [2, 7]: 7.63 ± 0.45^##(f) ^ U/L | ALP [2, 7]: 79.67 ± 10.18^###(f) IU/L | ALT [2, 7]: 47.07 ± 6.69^#(f) ^ IU/L | AST [2, 7]: 55.69 ± 5.37^###(f) IU/L | Total Protein [2, 7]: 6.98 ± 0.12 g/dL | hepatoprotective activity (conclusion, Tables 15 and 16) ([2]; paracetamol-induced hepatotoxicity, male and female mice): hepatoprotective activity in a dose dependent manner | effect on paracetamol-induced hepatotoxicity (ALT, AST, triglyceride, bilirubin vs paracetamol group) ([3]; 10 mg/kg body weight, male (Table 2) and female (Table 3) mice): significantly attenuated and reversed the paracetamol-induced hepatotoxicity | hepatoprotective activity against paracetamol, comparison of both test compounds ([3]; female mice, 10 mg/kg orally for 7 days, paracetamol 200 mg/kg): almost the same hepatoprotective activity | ALP ([3]; female mice): 105.1 ± 12.40 IU/L | ALT ([3]; female mice): 76.91 ± 16.87 IU/L | AST ([3]; female mice): 51.76 IU/L and 51.76 ± 3.72 IU/L | Total Bilirubin ([3]; female mice): 0.58 ± 0.30 mg/dL | Total Protein ([3]; female mice): 5.41 ± 0.49 mg/dL | Triglyceride ([3]; female mice): 45.13 ± 0.80 mg/dL | ALP ([3]; male mice): 107.1 ± 19.11 IU/L | ALT ([3]; male mice): 95.97 ± 29.52 IU/L | AST ([3]; male mice): 85.75 ± 11.59 IU/L | Total Bilirubin ([3]; male mice): 0.48 ± 0.14 mg/dL | Total Protein ([3]; male mice): 5530 ± 230 mg/dL | Triglyceride ([3]; male mice): 57.06 ± 0.90 mg/dL
